Patent US12616200B2, “Herbicidal combinations comprising diflufenican and mesotrione” (priority 2020, dated 2026)

Tests used:
Format in all cases: in vivo, Amaranthus palmeri
[1] = tested on: AMAPA WR-2015-008 (resistant against glyphosate and metribuzin (PSII-inhibitor), PPO-, HPPD- and ALS-inhibitor herbicides); assay: Greenhouse pre-emergence herbicidal activity, AMAPA WR-2015-008; settings: mean of 6
Excerpt: (§1) Test conditions in the greenhouse trial, herbicidal activity against weed plants pre-emergence.
(§2) Seeds of weed plants and crop plants are sown in 3.5 inches (8.89 cm) pots containing a 50:50 mix of Redi-earth (Sun Gro, Bellevue, Washington) and soil at 0.5 to 0.75 inches (1.27 to 1.905 cm) deep. The compounds of the disclosure, formulated in the form of wettable powders (WP) or emulsifiable concentrates (EC), are then applied to the dry soil surface, in the form of an aqueous suspension or emulsion, using a laboratory track sprayer calibrated to deliver 15 gallons per acre (140.31 L/ha). Following the treatment, the pots are placed in a greenhouse and overhead irrigated with 0.25 inches (0.635 cm) for activation and maintained under good growth conditions for the test plants. Visual scoring of the damage to the trial plants takes place after a trial time of 3 weeks in comparison to untreated controls (herbicidal activity in percent (%): 100% activity=plants have died; 0% activity=as control plants). The results are set out in the tables which follow.
AMAPA (WR-2015-008) Amaranthus palmeri (resistant against glyphosate and metribuzin (PSII-inhibitor), PPO-, HPPD- and ALS-inhibitor herbicides).
(§3) Herbicidal activity against different weeds (undesired plants) was calculated as follows: E^C=A+B−A×B/100; E^C=(A+B+C)−(A×B+A×C+B×C)/100+(A×B×C)/10000; • wherein: • A, B, C=respective value in percent of active ingredient A at a dose rate of a g/ha, ingredient B at a dose rate of b g/ha and ingredient C at a dose rate of c g/ha; • E^C=Expected value according to Colby (S. R. Colby; Weeds 15 (1967), 20-22) in % at a dose rate of a+b (+c), each in g/ha; • Δ=Difference (%) between measured value E and expected value E^C (%) (measured value minus expected value). Evaluation: • measured value E is greater than E^C: →synergism (+Δ); • measured value E is equal to E^C: →additive effect; • measured value E is smaller than E^C: →antagonism (−Δ);
(§4) All values in Tables 1 to 15 are mean values of 6 repetitions.

[2] = tested on: AMAPA WR-2013-043 (resistant against HPPD-inhibitor herbicides); assay: Greenhouse pre-emergence herbicidal activity, AMAPA WR-2013-043; settings: 3 weeks, mean of 6
Excerpt: as §1, §2
AMAPA (WR-2013-043) Amaranthus palmeri (resistant against HPPD-inhibitor herbicides) (Kansas).
as §3, §4

[3] = tested on: AMAPA WR-2015-002 (resistant against glyphosate, PPO-, HPPD- and ALS-inhibitor herbicides); assay: Greenhouse pre-emergence herbicidal activity, AMAPA WR-2015-002; settings: 3 weeks, mean of 6
Excerpt: as §1, §2
AMAPA (WR-2015-002) Amaranthus palmeri (resistant against glyphosate, PPO-, HPPD- and ALS-inhibitor herbicides) (Tennessee).
as §3, §4

Structure (SMILES): O=C(Nc1ccc(F)cc1F)c1cccnc1Oc1cccc(C(F)(F)F)c1 [DFF, 2′,4′-difluoro-2-[3-(trifluoromethyl)phenoxy]pyridine-3-carboxanilide]
- Activity [%] against AMAPA WR-2015-008 ([1]; rate 37 g/ha, visual scoring after 3 weeks): 40.8%
- Activity [%] against AMAPA WR-2015-008 ([1]; rate 75 g/ha, 3 weeks): 51.7%
- Activity [%] against AMAPA WR-2013-043 ([2]; rate 75 g/ha): 47.5%
- Activity [%] against AMAPA WR-2013-043 ([2]; rate 150 g/ha): 63.3%
- Activity [%] against AMAPA WR-2015-002 ([3]; rate 75 g/ha): 45.8%
- Activity [%] against AMAPA WR-2015-002 ([3]; rate 150 g/ha): 71.7%

Structure (SMILES): CSc1nnc(C(C)(C)C)c(=O)n1N [MRB, 4-amino-6-(1,1-dimethylethyl)-3-(methylthio)-1,2,4-triazin-5(4H)-one]
- Activity [%] against AMAPA WR-2015-008 ([1]; rate 75 g/ha, 3 weeks): 39.2%
- Activity [%] against AMAPA WR-2015-008 ([1]; rate 150 g/ha, 3 weeks): 45%

Structure (SMILES): CS(=O)(=O)c1ccc(C(=O)C2C(=O)CCCC2=O)c([N+](=O)[O-])c1 [MST, 2-[4-(methylsulfonyl)-2-nitrobenzoyl]cyclohexane-1,3-dione]
- Activity [%] against AMAPA WR-2015-008 ([1]; rate 52 g/ha, 3 weeks): 57.7%
- Activity [%] against AMAPA WR-2015-008 ([1]; rate 105 g/ha, 3 weeks): 85%
- Activity [%] against AMAPA WR-2013-043 ([2]; rate 52 g/ha): 55.0%
- Activity [%] against AMAPA WR-2013-043 ([2]; rate 105 g/ha): 70.5%
- Activity [%] against AMAPA WR-2015-002 ([3]; rate 105 g/ha): 82.5%
